Patent US20100240763A1, “Method to Determine and Biomarker for Treatment Efficacy With Ssri, Snri, and Sari Antidepressants” (priority 2006, published 2010)
Entries after “also recorded” stand apart in the source; their conditions may differ.

Columns and labels:
[1] = test system: BDNF^Met/Met, BDNF^+/− and wild-type mice; assay: open-field test after long-term fluoxetine; type: in vivo; conditions: fluoxetine orally 18 mg/kg of body weight per day for 21 days vs vehicle
Protocol: In the open-field test, percentage of time spent in the center in the absence (H2O) or presence of fluoxetine (drug) treatment was measured. […] All results are presented as means±SEM determined from analysis of eight mice per genotype (*P<0.05, **P<0.01). […] BDNF^Met/Met were treated orally with fluoxetine (18 mg/kg of body weight per day) or vehicle for 21 days before assessment in two tests: open field and novelty-induced hypophagia.

[2] = test system: transgenic mice homozygous for the G196A polymorphism and control wild-type mice; assay: anxiety-related behaviors in conflict/stress tests (open field, elevated plus maze, novelty induced hypophagia) after chronic fluoxetine; type: in vivo; conditions: chronic administration
Protocol: Second, we determined that these mice have increased anxiety-related behaviors as assessed by 3 conflict/stress tests (open field, elevated plus maze, novelty induced hypophagia). These tests for anxiety differ from those used in human studies in that the animals' anxiety-related behaviors are assessed after placement in a stressful environment.

`CNCCC(Oc1ccc(C(F)(F)F)cc1)c1ccccc1` (stereo not drawn) [fluoxetine] was tested, and the “entries into the center” value ([1]; BDNF^Met/Met mice) was “blunted response”, the “time spent in the center” value ([1]; BDNF^Met/Met mice, 18 mg/kg/day) was “blunted response; also recorded: Decreased response” and the “entries into the center” value ([1]; wild-type mice) was “increase in entries into the center”. The “time spent in the center” value ([1]; wild-type mice) was “significant increase”, the anxiety-related behaviors ([2]; control wild-type mice) was “could robustly diminish” and the “reversal of anxiety-related behaviors” value ([2]; transgenic mice homozygous for the G196A polymorphism) was “could not reverse”.
